Measurements from PubChem BioAssay (NCI).
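Test compounds were applied to cells in 96-well plates for 48 hours at 5 doses. Here, GI50 denotes the concentration required for 50% inhibition of growth. TGI: concentration producing complete growth inhibition.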

Key:
Assay in all cases: NCI-60 cell line screen, 48 h
HOP-92 NSCLC = system: HOP-92 NSCLC
SK-MEL-2 melanoma = system: SK-MEL-2 melanoma
NCI-H522 lung = system: NCI-H522 lung
MOLT-4 leukemia = system: MOLT-4 leukemia
NCI-H460 lung = system: NCI-H460 lung
SNB-75 CNS = system: SNB-75 CNS
K-562 leukemia = system: K-562 leukemia
SW-620 colon = system: SW-620 colon
UACC-62 melanoma = system: UACC-62 melanoma
BT-549 breast = system: BT-549 breast

| Compound | GI50 (HOP-92 NSCLC) | TGI (HOP-92 NSCLC) | GI50 (SK-MEL-2 melanoma) | TGI (SK-MEL-2 melanoma) | GI50 (NCI-H522 lung) | GI50 (MOLT-4 leukemia) | TGI (MOLT-4 leukemia) | GI50 (NCI-H460 lung) | TGI (NCI-H460 lung) | GI50 (SNB-75 CNS) | TGI (SNB-75 CNS) | GI50 (K-562 leukemia) | TGI (K-562 leukemia) | GI50 (SW-620 colon) | TGI (SW-620 colon) | GI50 (UACC-62 melanoma) | TGI (UACC-62 melanoma) | TGI (NCI-H522 lung) | GI50 (BT-549 breast) | TGI (BT-549 breast) |
| --- | --- | --- | --- | --- | --- | --- | --- | --- | --- | --- | --- | --- | --- | --- | --- | --- | --- | --- | --- | --- |
| O=C(Nc1cccc(-n2ccc3c(NC(=O)c4ccccc4)nccc32)c1)c1cc(N2CCOCC2)cc(C(F)(F)F)c1 | 0.3 µM | > 26.2 µM | 0.167 µM | 3.82 µM | 0.0269 µM | 0.907 µM | > 100 µM | 0.0374 µM | > 36.9 µM | 0.0362 µM | 0.678 µM | 0.0506 µM | > 100 µM | 0.0484 µM | > 100 µM | 0.0511 µM | > 44.2 µM | – | – | – |
| CC(C)CCC[C@@H](C)[C@H]1CCC2C3=CCC4C(=O)C=CC(=O)C4C3CC[C@@]21C (stereo partly specified) | 0.135 µM | 0.67 µM | 1.14 µM | – | 0.803 µM | 0.373 µM | > 100 µM | 0.324 µM | 2.59 µM | – | – | 0.139 µM | > 100 µM | – | – | 0.542 µM | > 100 µM | > 100 µM | 0.306 µM | 1.72 µM |
| COC1/C=C/C(C)C(C(C)C(OC)C(C)CCC(=O)C(C)C(C/C=C/N(C)C=O)OC)OC(=O)/C=C/C=C(\C)CC(OC)C(OC)C2=CC(=O)O[C@@H](C(C)C(OC)CC(OC)/C=C/C(C)C(O)C1)[C@H]2O (stereo partly specified) | – | 0.115 µM | – | 0.388 µM | – | – | > 100 µM | – | 0.553 µM | – | – | – | > 100 µM | – | 0.343 µM | – | 0.314 µM | 0.286 µM | – | 0.544 µM |
| O=C(C#Cc1cn(C2CC(O)C(CO)O2)c(=O)[nH]c1=O)c1ccccc1 (stereo unspecified) | – | 53.2 µM | – | > 100 µM | – | – | – | – | > 100 µM | – | > 100 µM | – | – | – | 50.4 µM | – | > 100 µM | 17.7 µM | – | > 100 µM |
| O=C(O)C1SCCS1 | – | > 100 µM | – | – | – | – | > 100 µM | – | > 100 µM | – | > 100 µM | – | > 100 µM | – | > 100 µM | – | > 100 µM | – | – | > 100 µM |
| COc1ccc(C2(C3c4cc(OC)c(OC)cc4CCN3C)SCCCS2)cc1O (stereo unspecified) | – | > 100 µM | – | > 100 µM | – | – | > 100 µM | – | > 100 µM | – | – | – | > 100 µM | – | > 100 µM | – | > 100 µM | > 100 µM | – | > 100 µM |
| CCOC(=O)C(=Cn1c(=S)[nH]c2ccc([N+](=O)[O-])cc21)C(=O)OCC | – | > 100 µM | – | > 100 µM | – | – | > 100 µM | – | > 100 µM | – | > 100 µM | – | > 100 µM | – | > 100 µM | – | > 100 µM | > 100 µM | – | – |
| CN(C)CCn1c(=O)c2ccc3c4c(nn3CCN(C)C)c3ccccc3n(c1=O)c24 | – | – | – | 1.17 µM | – | – | 0.0581 µM | – | 0.417 µM | – | 0.145 µM | – | 2.49 µM | – | 32 µM | – | 1.34 µM | 0.329 µM | – | 5.5 µM |
| COC(=O)CCN(CCC(=O)OC)C1CC1 | – | > 100 µM | – | – | – | – | > 100 µM | – | > 100 µM | – | > 100 µM | – | > 100 µM | – | > 100 µM | – | > 100 µM | – | – | – |
| COc1cc(C2S/C(=C/c3ccccc3)C(=O)N2c2cccc([N+](=O)[O-])c2)cc(OC)c1OC (stereo unspecified) | – | > 100 µM | – | 67.9 µM | – | – | > 100 µM | – | – | – | – | – | > 100 µM | – | – | – | > 100 µM | > 100 µM | – | > 100 µM |
| Cc1nnc2sc(N/N=C/c3ccccc3)nn12 | – | – | – | > 100 µM | – | – | > 100 µM | – | > 100 µM | – | > 100 µM | – | > 100 µM | – | > 100 µM | – | > 100 µM | > 100 µM | – | > 100 µM |
| COc1cc(CNc2nc3cc(C(F)(F)F)ccc3nc2C)cc(OC)c1OC | – | – | – | – | – | – | 50.7 µM | – | 36 µM | – | 57.1 µM | – | 73.9 µM | – | 33.6 µM | – | – | 48.5 µM | – | – |
| Cc1cc([N+](=O)[O-])ccc1N=NC(=O)NNc1ccc([N+](=O)[O-])cc1C | – | – | – | 43.6 µM | – | – | 37.5 µM | – | 33.4 µM | – | 34.7 µM | – | 39.9 µM | – | 33.7 µM | – | 26.3 µM | 51.7 µM | – | 28.3 µM |
| C/C(N=Nc1nc2ccccc2o1)=C1/C=CC=CN1O | – | 39.7 µM | – | > 100 µM | – | – | 6.3 µM | – | > 100 µM | – | – | – | > 100 µM | – | > 100 µM | – | > 100 µM | 26.7 µM | – | > 100 µM |
| NC(=O)NCCCC(NC(=O)OCCCCCn1ccc(=O)[nH]c1=O)C(=O)O (stereo unspecified) | – | > 100 µM | – | > 100 µM | – | – | > 100 µM | – | > 100 µM | – | > 100 µM | – | > 100 µM | – | > 100 µM | – | > 100 µM | – | – | > 100 µM |
| CN(c1ccccc1Cl)S(=O)(=O)c1ccccc1[N+](=O)[O-] | – | – | – | > 100 µM | – | – | > 100 µM | – | > 100 µM | – | > 100 µM | – | > 100 µM | – | > 100 µM | – | > 100 µM | > 100 µM | – | > 100 µM |
| CC(=O)OCC1OC(c2nnc(C)o2)=CC(OC(C)=O)C1OC(C)=O (stereo unspecified) | – | – | – | – | – | – | > 100 µM | – | > 100 µM | – | > 100 µM | – | > 100 µM | – | > 100 µM | – | – | > 100 µM | – | > 100 µM |
| COc1ccc2c(c1)-c1oc3ccccc3c(=O)c1CO2 | – | – | – | 83.3 µM | – | – | > 100 µM | – | – | – | 73 µM | – | > 100 µM | – | > 100 µM | – | > 100 µM | > 100 µM | – | 96.8 µM |
| CS(=O)(=O)O.[Ag] | – | – | – | 30.2 µM | – | – | 5.3 µM | – | 49.5 µM | – | 35.6 µM | – | 4.96 µM | – | 19.5 µM | – | 31.8 µM | 4.52 µM | – | 38 µM |
| COC(=O)c1cccc(C(=O)OC)c1 | – | > 100 µM | – | > 100 µM | – | – | > 100 µM | – | > 100 µM | – | > 100 µM | – | – | – | > 100 µM | – | – | > 100 µM | – | – |
| CCOC(=O)N(C)C1(c2ccccc2)CCN(CCCC(=O)c2ccc(F)cc2)CC1 | – | 78.6 µM | – | 53.5 µM | – | – | > 100 µM | – | > 100 µM | – | – | – | 72.7 µM | – | 9.3 µM | – | > 100 µM | > 100 µM | – | – |
| CC(C)(NC1=NCCO1)c1ccccc1 | – | > 100 µM | – | > 100 µM | – | – | > 100 µM | – | > 100 µM | – | > 100 µM | – | – | – | > 100 µM | – | > 100 µM | > 100 µM | – | – |
